Our source for the melting point and IC50 values is US8324246B2, “Indol carboxylic acid bispyridyl carboxamide derivatives, pharmaceutically acceptable salt thereof, preparation method and composition containing the same as an active ingredient” (Korea Research Institute of Chemical Technology, priority 2008, dated 2012).

As a reminder, the melting point is the temperature, or range, at which the solid turns liquid. As usually defined, the pIC50 is the IC50 on a negative log10 scale, so that one unit is a factor of ten.

pIC50: −log10 of the molar value.

System in one data set: not given
Assay: not given
Conditions: not given
For `Cc1ncccc1Oc1ccc(NC(=O)c2coc3ccccc23)cn1` [Example 3, benzofuran-3-carboxylic acid[6-(2-methyl-pyridine-3-yloxy)-pyridine-3-yl]-amide], the melting point lay within 52 to 55 °C. Regarding `Cc1ncccc1Oc1ccc(NC(=O)c2nc3ccccc3[nH]2)cn1` [Example 7, 1H-benzoimidazole-2-carboxylic acid[6-(2-methyl-pyridine-3-yloxy)-pyridine-3-yl]-amide], the melting point lay within 191 to 193 °C.

For a further data set, the target named is T1, human gene recombinant 5-HT2c receptor expressed in CHO-K1 cell (Homo sapiens, UniProt P28335).
T1 construct: purchased Euroscreen, Belgium; host or cells: CHO-K1
T1 sequence (P28335 33-458): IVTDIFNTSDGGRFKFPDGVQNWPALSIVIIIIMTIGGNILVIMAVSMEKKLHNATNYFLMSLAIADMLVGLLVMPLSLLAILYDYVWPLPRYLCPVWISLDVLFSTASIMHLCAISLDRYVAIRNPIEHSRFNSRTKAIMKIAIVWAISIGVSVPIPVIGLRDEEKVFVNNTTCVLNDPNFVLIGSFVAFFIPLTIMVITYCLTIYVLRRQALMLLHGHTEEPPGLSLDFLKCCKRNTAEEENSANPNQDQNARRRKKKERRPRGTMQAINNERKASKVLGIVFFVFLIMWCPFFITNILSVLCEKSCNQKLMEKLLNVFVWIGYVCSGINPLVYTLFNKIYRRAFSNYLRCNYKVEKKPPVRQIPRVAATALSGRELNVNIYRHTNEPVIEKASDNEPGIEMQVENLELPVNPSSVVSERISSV
The data set can be described thus: Binding affinity to the serotonin 5-HT2c receptor ([3H]mesulergine). The following applies: [3H]mesulergine 1 nM, 37° C. 30 minutes; Table 2; read-out: IC50. How it is done:
As a receptor, a human gene recombinant 5-HT2c receptor expressed in CHO—K1 cell was purchased from Euroscreen, Belgium and used in the experiment, and as a radioactive isotope, [3H]mesulergine (Amersham Biosciences, UK).
A final volume of 0.25 ml reaction mixture was prepared by adding 50 mM Tris-HCl buffer (pH 7.7) containing one of the compounds in Examples 1-29 or Comparative Examples 1-2, 1 nM of [3H]mesulergine, 5-HT2c receptor membranes (4 D/well), 0.1% ascorbic acid and 10 µM pargyline, and incubated at 37° C. for 30 minutes. After incubation, the reaction was terminated by the rapid filtration using an Inotech harvester (Inotech) through a Wallace GF/C glass fiber filter (Wallac, Finland) which was presoaked in 1% BSA, and then washed with ice-cold 50 mM Tris-HCl buffer. The filter was covered with MeltiLex, sealed in a sample bag followed by drying in the oven, and counted by MicroBeta Plus (Wallac). Non-specific binding was determined in the presence of […] Mianserin. Three repeating experiments were carried out with 7-8 concentrations of the compound in Examples 1-29 or the compound in comparative examples 1-2, run in duplicate tubes, and isotherms from the three assays were calculated by a nonlinear regression analysis (GraphPad Prism Program, San Diego, USA) to yield IC50 values.
As for `O=C(Nc1ccc(-c2cccnc2)cc1)c1c[nH]c2ccccc12` [Example 27, 1H-indole-3-carboxylic acid (4-pyridine-3-yl-phenyl)-amide], the pIC50 is 6.67. Consider `O=C(Nc1ccc(Oc2cncnc2)nc1)c1c[nH]c2ccccc12` [Example 19, 1H-indole-3-carboxylic acid[6-(pyrimidin-5-yloxy)-pyridine-3-yl]-amide], for which the negative-log IC50 (pIC50) was 7.30. Still for that read-out and setting: for `O=C(Nc1ccc(Oc2cccnc2)nc1)c1c[nH]c2ccccc12` [Example 24, 1H-indole-3-carboxylic acid[6-(pyridine-3-yloxy)-pyridine-3-yl]-amide] the value was 8.80; for `Cc1ncccc1Oc1ccc(N(C)C(=O)c2cn(C)c3ccccc23)cn1` [Example 13, 1-methyl-1H-indole-3-carboxylic acid methyl-[6-(2-methyl-pyridine-3-yloxy)-pyridine-3-yl]-amide], 5.20. `Cc1ncccc1Oc1ccc(NC(=O)c2coc3ccccc23)cn1` [Example 3, benzofuran-3-carboxylic acid[6-(2-methyl-pyridine-3-yloxy)-pyridine-3-yl]-amide]: the pIC50 is 6.78.

As to `Cc1ncccc1Oc1ccc(NC(=S)c2c[nH]c3ccccc23)cn1` [Example 10], the pIC50 was 7.64. `Cc1ncccc1Oc1ccc(NCc2c[nH]c3ccccc23)cn1` [Example 9, (1H-indole-3-ylmethyl)-[6-(2-methyl-pyridine-3-yloxy)-pyridine-3-yl]-amine]: the pIC50 is less than 5.00. Turning to `Cc1ncccc1Oc1ccc(NC(=O)c2nc3ccccc3[nH]2)cn1` [Example 7, 1H-benzoimidazole-2-carboxylic acid[6-(2-methyl-pyridine-3-yloxy)-pyridine-3-yl]-amide], the pIC50 is less than 5.00. For the molecule `O=C(Nc1cccnc1)c1c[nH]c2ccccc12` [Example 26, 1H-indole-3-carboxylic acid pyridine-3-ylamide], the pIC50 was less than 6.00. For `O=C(Nc1ccc(Oc2cccnc2Br)nc1)c1c[nH]c2ccccc12` [Example 23, 1H-indole-3-carboxylic acid[6-(2-bromo-pyridine-3-yloxy)-pyridine-3-yl]-amide], the pIC50 was 6.97. The same measure, in the same setting: for `COc1nc(OC)nc(Oc2ccc(NC(=O)c3c[nH]c4ccccc34)cc2)n1` [Example 29, 1H-indole-3-carboxylic acid[4-(4,6-dimethoxy-[1,3,5]triazine-2-ylxoxy)-phenyl]-amide] the value was less than 5.00; for `Cc1ncccc1Oc1ccc(NC(=O)c2cn(C)c3ccccc23)cn1` [Example 11, 1-methyl-1H-indole-3-carboxylid acid[6-(2-methyl-pyridine-3-yloxy)-pyridine-3-yl]-amide], 6.32; for `Cc1ncccc1Oc1ccc(N(C)C(=O)c2c[nH]c3ccccc23)cn1` [Example 12, 1H-indole-3-carboxylic acid methyl-[6-(2-methyl-pyridine-3-yloxy)-pyridine-3-yl]-amide], 5.02. In the case of `Cc1ccc2c(C(=O)Nc3ccc(Oc4cccnc4Cl)nc3)c[nH]c2c1` [Example 28, 6-methyl-1H-indole-3-carboxylic acid[6-(2-chloro-pyridine-3-yloxy)-pyridine-3-yl]-amide], the pIC50 is 8.15. Same read-out and setting: for `O=C(Nc1ccc(Oc2ccccc2)nc1)c1c[nH]c2ccccc12` [Example 25, 1H-indole-3-carboxylic acid(6-phenoxy-pyridine-3-yl)-amide] the value was 6.27; for `Cc1ccc(Oc2ccc(NC(=O)c3c[nH]c4ccccc34)cn2)cn1` [Example 21, 1H-indole-3-carboxylic acid[6-(6-methyl-pyridine-3-yloxy)-pyridine-3-yl]-amide], 5.65. Take “1H-indole-2-carboxylic acid[6-(2-methyl-pyridine-3-yloxy)-pyridine-3-yl]-amide [Example 5]”: the pIC50 was 7.23.
